Measured values: patent US20250345391A1, “COMPOSITIONS AND METHODS FOR THE TREATMENT OF SEPSIS” (Children's Hospital Medical Center, priority 2022, published 2025)

Experiments:
[1] = test system: Myeloperoxidase (MPO) activity in lung, kidneys and liver tissue; test: Myeloperoxidase activity (neutrophil infiltration) in organs after CLP sepsis; assay type: in vivo, Male C57BL/6 mice; conditions: 6 h after CLP; colivelin 100 or 200 μg/kg i.p. at 1 h after CLP; vs vehicle; dose-independent
Text: The investigation conformed to the National Institutes of Health Guide for the Care and Use of Laboratory Animals (Eighth Edition, 2011) and was approved by the Institutional Animal Care and Use Committee of the Cincinnati Children's Hospital Medical Center. Male C57BL/6 mice were obtained from Charles River Laboratories International, Inc. (Wilmington, MA). Mice were used at 3-5 months of age to mimic the equivalent for human ranges from 20-25 years (29). Male mice only were chosen for the experimentation to avoid interference from female hormonal fluctuations in sepsis responses during the estrous cycle. Mice were housed in pathogen-free conditions under a 10-h light/14-h dark cycle with free access to food and water. Mice were anesthetized with 2.0% isoflurane in 50% oxygen and polymicrobial sepsis was induced by cecal ligation and puncture (CLP) (30). After a midline laparotomy, the cecum was exteriorized, ligated and punctured twice with a 23-G needle. The cecum was then returned into the peritoneal cavity and the abdominal incision was closed. After the procedure, mice were randomly assigned to three treatment groups: a vehicle-treated group received distilled water (200 μl/mouse) intraperitoneally (i.p.); a 100 μg colivelin-treated group received the colivelin at 100 μg/kg i.p., and a 200 μg colivelin-treated group received the colivelin at 200 μg/kg i.p. at 1 h after CLP. The intraperitoneal injection was chosen to allow for a rapid uptake and bioavailability of the peptide. All groups of mice also received fluid resuscitation (35 ml/kg normal saline solution subcutaneously) immediately after, at 3 h and 12 h after the CLP procedure. […] Myeloperoxidase (MPO) activity was measured as an indicator of neutrophil infiltration in lung, kidneys and liver tissue. […] The rate of change in absorbance was measured by spectrophotometry at 650 nm. MPO activity was defined as the quantity of enzyme degrading 1 μmol of hydrogen peroxide/min at 37° C. and expressed in units per 100 mg weight of tissue.

syndecan-1 = test: Plasma syndecan-1 (glycocalyx damage) after CLP sepsis, ELISA; assay type: in vivo, Male C57BL/6 mice; conditions: 6 h after CLP; colivelin 100 or 200 μg/kg i.p. at 1 h after CLP; vs vehicle; dose-independent
Text: The investigation conformed to the National Institutes of Health Guide for the Care and Use of Laboratory Animals (Eighth Edition, 2011) and was approved by the Institutional Animal Care and Use Committee of the Cincinnati Children's Hospital Medical Center. Male C57BL/6 mice were obtained from Charles River Laboratories International, Inc. (Wilmington, MA). Mice were used at 3-5 months of age to mimic the equivalent for human ranges from 20-25 years (29). Male mice only were chosen for the experimentation to avoid interference from female hormonal fluctuations in sepsis responses during the estrous cycle. Mice were housed in pathogen-free conditions under a 10-h light/14-h dark cycle with free access to food and water. […] Plasma levels of tumor necrosis factor-α (TNFα), interleukin (IL)-1β, IL-6, IL-10, keratinocytes-derived chemokine (KC), and macrophage inflammatory proteins (MIP-1α) were used as indices of the systemic inflammatory response and were evaluated by a commercially available multiplex array system (Milliplex, Millipore Corporation, Billerica, MA). Plasma levels of endoglin, intercellular adhesion molecule-1 (ICAM-1), P-selectin, proprotein convertase subtilisin/kexin type 9 (PCSK9), and angiopoietin-2 (Ang 2) were used as indices of endothelial injury and were evaluated by a commercially available multiplex array system (R&D Systems, Minneapolis, MN). […]

Colivelin (SALLRSIPAPAGASRLLLLTGEIDLP)
significantly decreased: MPO activity in kidneys [1] | MPO activity in liver [1] | MPO activity in lungs [1] | Levels of plasma syndecan-1 (syndecan-1)
